Source: patent publication US9284283B2, “Macrocyclic compounds for modulating IL-17” (ENSEMBLE THERAPEUTICS CORPORATION, priority 2012, dated 2016)

These compounds were tested on IL-17A induced secretion of IL-6 in primary human RASF cells (assay: Inhibition of IL17A induced secretion of IL6 in human rheumatoid arthritis synovial fibroblast (RASF) cells). Details: Homo sapiens, Fibroblast.
Format: cell-based
Summary of the method: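 Primary RASF cells (passage 2-8) stimulated 20 h at 37 °C with rhIL-17A (30 ng/mL) pre-incubated 1 h with compound (final 0.03-25 μM, 0.25% DMSO). Supernatant IL-6 measured by ELISA, normalized to WST1 viability; triplicates.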
With `COC(=O)[C@@H]1CCCCNC(=O)CCCNC(=O)[C@@H](Cc2ccc(NC(=O)[C@H](Cc3ccccc3F)NC(=O)Cc3ccccc3)cc2)NC(=O)CC2(CCCC2)CC(=O)N1` [Compound 106] the IC50 was > 10000 nM.
`COC(=O)[C@@H]1CCCCNC(=O)CNC(=O)[C@@H](Cc2ccc(NC(=O)[C@H](Cc3ccccc3Cl)NC(=O)Cc3ccccc3)cc2)NC(=O)CC2(CCCC2)CC(=O)N1` [Compound 143] was tested, and the IC50 was 1000 to 10000 nM.
`COC(=O)[C@@H]1CCCCNC(=O)CNC(=O)[C@@H](Cc2ccc(NC(=O)[C@H](Cc3ccccc3Cl)NC(=O)c3ccccc3)cc2)NC(=O)CC2(CCCC2)CC(=O)N1` [Compound 144] showed an IC50 of 1000 to 10000 nM.
`O=C1CNC(=O)[C@@H](Cc2ccc(NC(=O)[C@H](Cc3ccccc3Cl)NC(=O)Cc3ccccc3)cc2)NC(=O)CC2(CCCC2)CC(=O)NCCCCCN1` [Compound 159] showed an IC50 of 1000 to 10000 nM.
`O=C1CNC(=O)[C@@H](Cc2ccc(NC(=O)[C@H](Cc3ccc(Cl)cc3Cl)NC(=O)Cc3ccccc3)cc2)NC(=O)CC2(CCCC2)CC(=O)NCCCCCN1` [Compound 185] was tested, and the IC50 was 1000 to 10000 nM.
`O=C1CNC(=O)[C@@H](Cc2ccc(NC(=O)[C@H](Cc3ccccc3Cl)NC(=O)Cc3ccccn3)cc2)NC(=O)CC2(CCCC2)CC(=O)NCCCCCN1` [Compound 226] was tested, and the IC50 was 1000 to 10000 nM.
In the case of `O=C1CNC(=O)[C@@H](Cc2ccc(NC(=O)[C@H](Cc3ccc(Cl)cc3Cl)NC(=O)Cc3ccc(O)cc3)cc2)NC(=O)CC2(CCCC2)CC(=O)NCCCCCN1` [Compound 191], the IC50 is reported as 1000 to 10000 nM.
Work on `O=C1CNC(=O)[C@@H](Cc2ccc(NC(=O)[C@H](Cc3ccccc3Cl)NC(=O)c3cccnc3)cc2)NC(=O)CC2(CCCC2)CC(=O)NCCCCCN1` [Compound 194] yielded an IC50 of 100 to 1000 nM.
In the case of `O=C1CNC(=O)[C@@H](Cc2ccc(NC(=O)[C@@H](NC(=O)Cc3ccccc3)C3CCCCC3)cc2)NC(=O)CC2(CCCC2)CC(=O)NCCCCCN1` [Compound 186], the IC50 is reported as 1000 to 10000 nM.

What follows are compounds tested on IL-17-induced GROα secretion from HT-29 cells (assay: HT-29 cellular assay (IL-17-induced GROα secretion)). Details: Homo sapiens.
Format: cell-based
Description: To test the ability of a compound of the invention to neutralize or antagonize IL-17 bioactivity, the following cell-based assay was used. IL-17 can stimulate epithelial cells and other cells to secrete GROα. The ability of a compound of the invention to neutralize IL-17-induced GROα secretion from the human colorectal adenocarcinoma epithelial cell line HT-29 is tested in this assay.
HT-29 cells (human colorectal adenocarcinoma epithelial cells, ATCC #HTB-38), were maintained in culture/assay medium in tissue culture-treated flasks using standard techniques. HT-29 cells were grown in tissue culture flasks until they were 50-80% confluent on the day before the assay. The day before the assay, the cells were detached from the culture flasks with trypsin+EDTA. The trypsin was inactivated with complete assay medium. HT-29 cells were then centrifuged at 500×g for 5 minutes at room temperature. The cell pellet was then re-suspended in Defined Keratinocyte SFM (Invitrogen #10766019)+10% FCS and 50,000 HT-29 cells (in 100 μl) were added to each treatment well of the 96-well plates. The 96-well plates were placed in a tissue culture incubator (37° C., 5% CO2) overnight. The next day, the media was removed from the cells and the cells were washed twice with Defined Keratinocyte SFM. In a separate 96-well plate, compounds to be tested were serially diluted in Defined Keratinocyte SFM and run in triplicate in 100 μL total volume. To these compound samples were then added 100 μL of human IL-17 at a concentration of 20 ng/mL in Defined Keratinocyte SFM for serum-free assays. 150 μL of the compound/IL-17 mixture was then added to the cells from which the media has previously been removed. The cells were grown for 48 hours in Defined Keratinocyte SFM in a tissue culture incubator (37° C., 5% CO2).
At the end of the incubation, the plates are centrifuged (500×g for 5 minutes at room temperature), and the cell culture media is transferred to polypropylene 96-well plates. The supernatant was used neat in the ELISA. GROα levels are measured with a GROα sandwich ELISA (R+D Systems DuoSet #DY275E), as per the manufacturer's instructions. The ELISA plates were previously coated with mAb 275 (R+D Systems) at 4 μg/mL. GROα is detected using biotinylated goat anti-human GROα (R+D Systems BAF275) at 200 ng/mL using TMB as a substrate. At the end of the ELISA reactions, plates are read at 450 nm on a microplate reader and compared to a standard calibration curve.
In the case of `COC(=O)[C@@H]1CCCCNC(=O)CCCNC(=O)[C@@H](Cc2ccc(NC(=O)[C@H](Cc3ccccc3F)NC(=O)Cc3ccccc3)cc2)NC(=O)CC2(CCCC2)CC(=O)N1` [Compound 106], the IC50 is reported as > 10000 nM.
With `COC(=O)[C@@H]1CCCCNC(=O)CNC(=O)[C@@H](Cc2ccc(NC(=O)[C@H](Cc3ccccc3Cl)NC(=O)Cc3ccccc3)cc2)NC(=O)CC2(CCCC2)CC(=O)N1` [Compound 143] the IC50 was < 1000 nM.
`COC(=O)[C@@H]1CCCCNC(=O)CNC(=O)[C@@H](Cc2ccc(NC(=O)[C@H](Cc3ccccc3Cl)NC(=O)c3ccccc3)cc2)NC(=O)CC2(CCCC2)CC(=O)N1` [Compound 144] gave an IC50 of 1000 to 10000 nM.
With `O=C1CNC(=O)[C@@H](Cc2ccc(NC(=O)[C@H](Cc3ccccc3Cl)NC(=O)Cc3ccccc3)cc2)NC(=O)CC2(CCCC2)CC(=O)NCCCCCN1` [Compound 159] the IC50 was < 1000 nM.
`O=C1CNC(=O)[C@@H](Cc2ccc(NC(=O)[C@H](Cc3ccc(Cl)cc3Cl)NC(=O)Cc3ccccc3)cc2)NC(=O)CC2(CCCC2)CC(=O)NCCCCCN1` [Compound 185] showed an IC50 of 1000 to 10000 nM.
`O=C1CNC(=O)[C@@H](Cc2ccc(NC(=O)[C@H](Cc3ccc(Cl)cc3Cl)NC(=O)Cc3ccc(O)cc3)cc2)NC(=O)CC2(CCCC2)CC(=O)NCCCCCN1` [Compound 191] was tested, and the IC50 was < 1000 nM.
